Consider two compounds from patent US20200306295A1, “METHOD AND DEVICE FOR ANNIHILATION OF Staphylococcus aureus” (priority 2017, published 2020).

Test [1] relates to MRSA USA300. The test can be described thus: In vivo MRSA mice wound model (blue light, H2O2, fusidic acid). Further details: species or system Balb/c mice. An excerpt: To initiate the formation of a skin wound, five groups (n=5) of eight-week old female Balb/c mice (obtained from Harlan Laboratories, Indianapolis, Ind., USA) were disinfected with ethanol (70%) and shaved on the middle of the back (approximately a one-inch by one-inch square region around the injection site) one day prior to infection as described from a reported procedure (3). To prepare the bacterial inoculum, an aliquot of overnight culture of MRSA USA300 was transferred to fresh Tryptic soy broth and shaken at 37° C. until an OD600 value of ˜1.0 was achieved. The cells were centrifuged, washed once with PBS, re-centrifuged, and then re-suspended in PBS. Mice subsequently received an intradermal injection (40 μL) containing 2.40×10^9 CFU/mL MRSA USA300. An open wound formed at the site of injection for each mouse, ˜60 hrs post-infection.
One group of mice was left untreated (negative control). Each group of mice receiving a particular treatment regimen was housed separately in a ventilated cage with appropriate bedding, food, and water. Mice were checked twice daily during infection and treatment to ensure no adverse reactions were observed. Mice were treated twice daily (once every 12 hours) for three days, before they were humanely euthanized via CO2 asphyxiation 12 hours after the last dose was administered. The region around the skin wound was lightly swabbed with ethanol (70%) and excised. The tissue was subsequently homogenized in PBS. The homogenized tissue was then serially diluted in PBS before plating onto mannitol salt agar plates. Plates were incubated for at least 19 hours at 37° C. before viable MRSA CFU/mL were counted for each group. Outlier was removed based upon the Dixon Q Test.

Test [2] relates to MRSA USA300. As to the method:
Thereafter, an aliquot (20 μL) of the bacterial suspension was transferred onto a glass slide. Samples were exposed to blue light at different time-lengths and variable light intensities. […] The solutions were cultured for 20 min. The solution was serially diluted in sterile PBS and transferred to LB plates in order to enumerate the viable number of MRSA colony-forming units (CFUs). […] Data are presented as viable MRSA CFU/mL and percent survival of MRSA CFU/mL in the treated groups.
Additive was defined as an FIC index of 1. Antagonism was defined as an FIC index of >4.

In a further test the test system is stationary-phase MRSA. Nature of the test: Time-killing assay in PBS with or without pulsed laser (CFU enumeration). The class given is cell-based, S. aureus. The procedure:
To quantify viable bacterial cells, CFU experiments were performed. 100 μl of sample analyte was transferred into a 96-well plate and then three or four ten-fold serial dilution achieved by transferring 20 μl bacterial culture into 180 μl 1×PBS in the next dilution row. After serial dilution, an aliquot (4 μl) from each well was spotted onto sterile TSA plates. After incubating the plates overnight (˜18 hours) at 37° C., the colonies were enumerated, and cell number was calculated in CFU/ml. For each CFU enumeration experiment, three independent replicates were applied.
Stationary-phase MRSA was prepared, washed and resuspended in 1×PBS at two-times of its original concentration. […] After laser treatment, the droplets were resuspended into 200 μl of 1×PBS (1:40 dilution) supplemented with antibiotics at different concentrations in a mini centrifuge tube (89166-278, VWR international). For example, daptomycin was added into MRSA solution after laser treatment at desired concentration of 0×MIC, 5×MIC, 10×MIC, 30×MIC, or 100×MIC supplemented with 50 μg/ml CaCl2). Corresponding groups without laser treatment were also conducted for comparison. These tubes were incubated within an orbital incubator (37° C., 200 rpm) for different incubation time. At each specific time point, 40 μl of aliquot from each group was transferred to a 96-well plate for follow-up CFU enumerating assay. In the case of tobramycin, additional antibiotic washing by 1×PBS was performed before the CFU experiment to avoid antibiotic interference. For time-killing assay in fresh human whole blood, similar protocol was followed as above, except that 1×PBS was replaced by fresh human whole blood and the initial stationary-phase MRSA solution was diluted by ten times with a concentration of ˜10^7 CFU/ml.

The test system of test [3] is S. aureus (ATCC 6538) biofilm. The settings on record: blue light plus low-concentration H2O2.
Where [4] appears, read: agent alone, topical, twice a day for three days.

Turning to `CC(=O)O[C@H]1C[C@@]2(C)[C@@H](C[C@@H](O)[C@H]3[C@@]4(C)CC[C@@H](O)[C@@H](C)[C@@H]4CC[C@@]32C)/C1=C(\CCC=C(C)C)C(=O)O` [fusidic acid], the “pus formation in wound after sacrifice” value in the test on MRSA USA300 [1] (setting [4]) was “showed the formation of pus”.

On to `OO` [H2O2, hydrogen peroxide], for which the “MRSA killing (CFUs)” value with MRSA USA300 [2] (13.2 mM H2O2 combined with blue light 108 J/cm^2, ~10^7 MRSA) was “eradicated all MRSA”. In the test with MRSA USA300 [2] (5-min culture with H2O2 after 2-min blue light exposure (24 J/cm^2)), this compound gave an MRSA scavenged of 60%. In addition, in the test on MRSA USA300 [2] (H2O2 20 min, 13.2 mM after 2-min blue light (24 J/cm^2)), the “antimicrobial efficiency relative to 2-min blue light alone” value is listed as “Two times antimicrobial efficiency”. For the same compound, in the test with MRSA USA300 [2] (blue light and H2O2 against MRSA, ≤0.5 is synergy, according to estimation), the FIC index is ≤ 0.38. Besides, the “killing of stationary-phase MRSA” value with stationary-phase MRSA (220 μM with laser treatment, within 2 hours) is 4 log; in the test on stationary-phase MRSA (alone, at 22 mM high concentration), “minor killing”. In addition, in test [3], the “MRSA killed inside biofilm” value was found to be 92%. Also, the “pus formation in wound after sacrifice” value in the test with MRSA USA300 [1] (setting [4]) and in the test with MRSA USA300 [1] (blue light plus H2O2) was “didn't show this sign” in each case. The “CFU reduction in wound tissue compared to the control group” value with MRSA USA300 [1] (blue light (24 J/cm^2) and 13.2 mM H2O2, twice daily for three days) is “around 1.5 log”. Moreover, the “CFU reduction in wound tissue compared to fusidic acid-treated group” value in the test on MRSA USA300 [1] (blue light and H2O2-treated group) is “around one more log reduction”.
